Assay results taken from patent publication US20210395262A1, “INHIBITORS OF HUMAN IMMUNODEFICIENCY VIRUS REPLICATION” (ViiV HEALTHCARE UK (NO.5) LIMITED, priority 2018, published 2021).
Read-outs that look alike come from different tables or passages of the source.

Legend:
recombinant NL4-3 virus = assay: HIV cell culture assay (antiviral activity, luciferase readout in MT-2 cells); format: cell-based; conditions: Human immunodeficiency virus 1, NL43, MT2
Method: HIV cell culture assay—MT-2 cells, 293T cells and the proviral DNA clone of NL4-3 virus were obtained from the […] AIDS Research and Reference Reagent Program. MT-2 cells were propagated in RPMI 1640 media supplemented with 10% heat inactivated fetal bovine serum (FBS), […] penicillin G and up to 100 units/mL streptomycin. The 293T cells were propagated in DMEM media supplemented with 10% heat inactivated FBS, […] penicillin G and […] streptomycin. A recombinant NL4-3 proviral clone, in which a section of the nef gene was replaced with the Renilla luciferase gene, was used to make the reference virus used in these studies. The recombinant virus was prepared through transfection of the recombinant NL4-3 proviral clone into 293T cells using Transit-293 Transfection Reagent from Mirus Bio LLC (Madison, Wis.). Supernatent was harvested after 2-3 days and the amount of virus present was titered in MT-2 cells using luciferase enzyme activity as a marker by measuring luciferase enzyme activity. Luciferase was quantitated using the EnduRen Live Cell Substrate from Promega (Madison, Wis.). Antiviral activities of compounds toward the recombinant virus were quantified by measuring luciferase activity in MT-2 cells infected for 4-5 days with the recombinant virus in the presence of serial dilutions of the compound.
The 50% effective concentration (EC50) was calculated by using the exponential form of the median effect equation where (Fa)=1/[1+(ED50/drug conc.)m] (Johnson V A, Byington R T. Infectivity Assay. In Techniques in HIV Research. ed. Aldovini A, Walker B D. 71-76. New York: Stockton Press. 1990). The 50% inhibitory concentration (EC50) was calculated by using the exponential form of the median effect equation where percent inhibition=1/[1+(EC50/drug concentration)m], where m is a parameter that reflects the slope of the concentration-response curve.

[1] = Compound cytotoxicity, XTT-based colorimetric assay; format: cell-based; conditions: human
Method: Compound cytotoxicity and the corresponding CC50 values were determined using the same protocol as described in the antiviral assay except that uninfected cells were used. Cytotoxicity was assessed on day 4 in uninfected MT2 cells by using a XTT (2,3-bis[2-Methoxy-4-nitro-5-sulfophenyl]-2H-tetrazolium-5-carboxyanilide inner salt)-based colorimetric assay (Sigma-Aldrich, St Louis, Mo.).

[2] = uninfected MT2 cells, day 4, XTT, read-out: CC50

SMILES | EC50 (recombinant NL4-3 virus) | CC50 at 4 days [1, 2] | CC50 at 4 days [1]
C[C@@H]1CN(c2ccc3c(=O)n(-c4ccc(Cl)c5c(NS(C)(=O)=O)nn(C)c45)c([C@H](Cc4cc(F)cc(F)c4)NC(=O)Cc4cn(C5CC5)c5ccccc45)nc3c2)C[C@H](C)O1 (atropisomer, axis not shown; (P)) [Example 53, N—((S)-1-((3P)-3-(4-chloro-1-methyl-3-(methylsulfonamido)-1H-indazol-7-yl)-7-((2S,6R)-2,6-dimethylmorpholino)-4-oxo-3,4-dihydroquinazolin-2-yl)-2-(3,5-difluorophenyl)ethyl)-2-(1-cyclopropyl-1H-indol-3-yl)acetamide] | 0.81 nM | > 500 nM | –
Cn1nc(NS(C)(=O)=O)c2c(Cl)ccc(-n3c([C@H](Cc4cc(F)cc(F)c4)NC(=O)Cn4nc(C(F)F)c5c4C(F)(F)[C@@H]4C[C@H]54)nc4cc(N5C6CCC5COC6)ccc4c3=O)c21 [Example 64, N—((S)-1-(7-((1R,5S)-3-oxa-8-azabicyclo[3.2.1]octan-8-yl)-(3P)-3-(4-chloro-1-methyl-3-(methylsulfonamido)-1H-indazol-7-yl)-4-oxo-3,4-dihydroquinazolin-2-yl)-2-(3,5-difluorophenyl)ethyl)-2-((3bS,4aR)-3-(difluoromethyl)-5,5-difluoro-3b,4,4a,5-tetrahydro-1H-cyclopropa[3,4]cyclopenta[1,2-c]pyrazol-1-yl)acetamide] | 0.037 nM | – | > 500 nM
C[C@@H]1CN(c2ccc3c(=O)n(-c4ccc(Cl)c5c(NS(C)(=O)=O)nn(CC(F)(F)F)c45)c([C@H](Cc4cc(F)cc(F)c4)NC(=O)Cn4nc(C(F)F)cc4C4CC4)nc3c2)C[C@H](C)O1 (atropisomer, axis not shown; (P)) [Example 59, N—((S)-1-((3P)-3-(4-chloro-3-(methylsulfonamido)-1-(2,2,2-trifluoroethyl)-1H-indazol-7-yl)-7-((2S,6R)-2,6-dimethylmorpholino)-4-oxo-3,4-dihydroquinazolin-2-yl)-2-(3,5-difluorophenyl)ethyl)-2-(5-cyclopropyl-3-(difluoromethyl)-1H-pyrazol-1-yl)acetamide] | 0.42 nM | > 500 nM | –
Cn1nc(NS(C)(=O)=O)c2c(Cl)ccc(-n3c([C@H](Cc4cc(F)cc(F)c4)NC(=O)Cn4nc(C(F)F)c5c4C(F)(F)[C@@H]4C[C@H]54)nc4cc(N5CC6(COC6)C5)ccc4c3=O)c21 (atropisomer, axis not shown; (P)) [Example 21, N—((S)-1-((3P)-3-(4-chloro-1-methyl-3-(methylsulfonamido)-1H-indazol-7-yl)-4-oxo-7-(2-oxa-6-azaspiro[3.3]heptan-6-yl)-3,4-dihydroquinazolin-2-yl)-2-(3,5-difluorophenyl)ethyl)-2-((3bS,4aR)-3-(difluoromethyl)-5,5-difluoro-3b,4,4a,5-tetrahydro-1H-cyclopropa[3,4]cyclopenta[1,2-c]pyrazol-1-yl)acetamide] | 0.064 nM | > 500 nM | –
Cn1nc(NS(C)(=O)=O)c2c(Cl)ccc(-n3c([C@H](Cc4cc(F)cc(F)c4)NC(=O)Cn4nc(C(F)F)c5c4C(F)(F)[C@@H]4C[C@H]54)nc4cc(N5CCOC(C)(C)C5)ccc4c3=O)c21 (atropisomer, axis not shown; (P)) [Example 4, N—((S)-1-((3P)-3-(4-chloro-1-methyl-3-(methylsulfonamido)-1H-indazol-7-yl)-7-(2,2-dimethylmorpholino)-4-oxo-3,4-dihydroquinazolin-2-yl)-2-(3,5-difluorophenyl)ethyl)-2-((3bS,4aR)-3-(difluoromethyl)-5,5-difluoro-3b,4,4a,5-tetrahydro-1H-cyclopropa[3,4]cyclopenta[1,2-c]pyrazol-1-yl)acetamide] | 0.063 nM | > 500 nM | –
O=C(Cn1nc(C(F)F)c2c1C(F)(F)[C@@H]1C[C@H]21)N[C@@H](Cc1cc(F)cc(F)c1)c1nc2cc(N3CCOCC3)ccc2c(=O)n1-c1ccc(Cl)c2c(NS(=O)(=O)C3CC3)nn(CC(F)F)c12 (atropisomer, axis not shown; (P)) [Example 9, N—((S)-1-((3P)-3-(4-chloro-3-(cyclopropanesulfonamido)-1-(2,2-difluoroethyl)-1H-indazol-7-yl)-7-morpholino-4-oxo-3,4-dihydroquinazolin-2-yl)-2-(3,5-difluorophenyl)ethyl)-2-((3bS,4aR)-3-(difluoromethyl)-5,5-difluoro-3b,4,4a,5-tetrahydro-1H-cyclopropa[3,4]cyclopenta[1,2-c]pyrazol-1-yl)acetamide] | 0.086 nM | > 500 nM | –
Cn1nc(NS(C)(=O)=O)c2c(Cl)ccc(-n3c([C@H](Cc4cc(F)cc(F)c4)NC(=O)Cn4nc(C(F)F)c5c4C(F)(F)[C@@H]4C[C@H]54)nc4cc(N5CCCOCC5)ccc4c3=O)c21 (atropisomer, axis not shown; (P)) [Example 17, N—((S)-1-((3P)-3-(4-chloro-1-methyl-3-(methylsulfonamido)-1H-indazol-7-yl)-7-(1,4-oxazepan-4-yl)-4-oxo-3,4-dihydroquinazolin-2-yl)-2-(3,5-difluorophenyl)ethyl)-2-((3bS,4aR)-3-(difluoromethyl)-5,5-difluoro-3b,4,4a,5-tetrahydro-1H-cyclopropa[3,4]cyclopenta[1,2-c]pyrazol-1-yl)acetamide] | 0.069 nM | > 1000 nM | –
O=C(Cn1nc(C(F)F)cc1C(F)F)N[C@@H](Cc1cc(F)cc(F)c1)c1nc2cc(N3CCOCC3)ccc2c(=O)n1-c1ccc(Cl)c2c(NS(=O)(=O)C3CC3)nn(CC(F)F)c12 (atropisomer, axis not shown; (P)) [Example 36, (S)-2-(3,5-bis(difluoromethyl)-1H-pyrazol-1-yl)-N-(1-((3P)-3-(4-chloro-3-(cyclopropanesulfonamido)-1-(2,2-difluoroethyl)-1H-indazol-7-yl)-7-morpholino-4-oxo-3,4-dihydroquinazolin-2-yl)-2-(3,5-difluorophenyl)ethyl)acetamide] | 2.31 nM | > 1000 nM | –
Cn1nc(NS(C)(=O)=O)c2c(Cl)ccc(-n3c([C@H](Cc4cc(F)cc(F)c4)NC(=O)Cn4nc(C(F)F)c5c4C(F)(F)[C@@H]4C[C@H]54)nc4cc(N5CC(S(C)(=O)=O)C5)ccc4c3=O)c21 (atropisomer, axis not shown; (P)) [Example 26, N—((S)-1-((3P)-3-(4-chloro-1-methyl-3-(methylsulfonamido)-1H-indazol-7-yl)-7-(3-(methylsulfonyl)azetidin-1-yl)-4-oxo-3,4-dihydroquinazolin-2-yl)-2-(3,5-difluorophenyl)ethyl)-2-((3bS,4aR)-3-(difluoromethyl)-5,5-difluoro-3b,4,4a,5-tetrahydro-1H-cyclopropa[3,4]cyclopenta[1,2-c]pyrazol-1-yl)acetamide] | 0.295 nM | > 500 nM | –
O=C(Cn1nc(C(F)F)cc1C1CC1)N[C@@H](Cc1cc(F)cc(F)c1)c1nc2cc(N3CCOCC3)ccc2c(=O)n1-c1ccc(Cl)c2c(NS(=O)(=O)C3CC3)nn(CC(F)F)c12 (atropisomer, axis not shown; (P)) [Example 40, (S)—N-(1-((3P)-3-(4-chloro-3-(cyclopropanesulfonamido)-1-(2,2-difluoroethyl)-1H-indazol-7-yl)-7-morpholino-4-oxo-3,4-dihydroquinazolin-2-yl)-2-(3,5-difluorophenyl)ethyl)-2-(5-cyclopropyl-3-(difluoromethyl)-1H-pyrazol-1-yl)acetamide] | 0.361 nM | > 1000 nM | –
Cn1nc(NS(C)(=O)=O)c2c(Cl)ccc(-n3c([C@H](Cc4cc(F)cc(F)c4)NC(=O)Cn4nc(C(F)F)c5c4C(F)(F)[C@@H]4C[C@H]54)nc4cc(N5CCC6(CC5)COC6)ccc4c3=O)c21 (atropisomer, axis not shown; (P)) [Example 25, N—((S)-1-((3P)-3-(4-chloro-1-methyl-3-(methylsulfonamido)-1H-indazol-7-yl)-4-oxo-7-(2-oxa-7-azaspiro[3.5]nonan-7-yl)-3,4-dihydroquinazolin-2-yl)-2-(3,5-difluorophenyl)ethyl)-2-((3bS,4aR)-3-(difluoromethyl)-5,5-difluoro-3b,4,4a,5-tetrahydro-1H-cyclopropa[3,4]cyclopenta[1,2-c]pyrazol-1-yl)acetamide] | 0.095 nM | > 500 nM | –
